Source: patent US11866752B2, “Cysteine polysulfidation and mitochondrial bioenergetics regulated by cysteinyl-tRNA synthetase” (Bio-Xcelerator, Inc., priority 2018, dated 2024)
Blank lines part the entries; values can stand above or below the molecule they belong to.

How the values were obtained:
EcCARS = biological target: T1, EcCARS (Escherichia coli, UniProt P21888); format: biochemical; details: for Persulfide generation by EcCARS with cysteine enantiomer as substrate: substrate enantioselectivity
T1 construct: His tag (inferred from nickel-NTA purification); made in house
Text: The data are means ±s.d. […] Data represent means ±s.d.

ADH5 = biological target: T2, ADH5 (Homo sapiens, UniProt P11766); experiment: HPE-IAM labeling of ADH5 cysteine polysulfides, LC-ESI-MS/MS; details: treatment of ADH5
T2 construct: made in house; host or cells: Escherichia coli
Text: Redox property of cysteine and protein polysulfides. CysSSHhas unique redox-active properties that distinguishes it from the cysteine (CysSH) thiol. […] Moreover, dialkylpolysulfides can also be nucleophilic and electrophile-mediated cleavage of S—S bonds is established28. The unique properties and reactivity of polysulfides allowed us to develop several analytical techniques aimed at determining endogenous production of LMW and protein-bound polysulfides (Supplementary FIG. 3). We first developed a convenient method for selective detection of polysulfidated proteins: the biotin-polyethylene glycol (PEG)-conjugated maleimide (biotin-PEG-MAL) labeling gel shift assay (PMSA; Supplementary FIG. 3a)15. […] We then used liquid chromatography-electrospray ionizationtandem mass spectrometry (LC-ESI-MS/MS) with 0-(4-hydroxyphenyl) ethyl iodoacetamide (HPE-IAM) as a trapping agent to identify and precisely quantify various hydropolysulfides, and also to verify the site specificity of polysulfidation as well as the number of sulfur atoms involved in proteins (Supplementary FIG. 5, and Supplementary Table 2). […]

mouse CARS1 = biological target: T3, mouse CARS1 (Mus musculus, UniProt Q9ER72); experiment: CysSSH and CysSSSH biosynthesis by recombinant mouse CARS1
T3 sequence (Q9ER72 1-748 isoform Q9ER72-2): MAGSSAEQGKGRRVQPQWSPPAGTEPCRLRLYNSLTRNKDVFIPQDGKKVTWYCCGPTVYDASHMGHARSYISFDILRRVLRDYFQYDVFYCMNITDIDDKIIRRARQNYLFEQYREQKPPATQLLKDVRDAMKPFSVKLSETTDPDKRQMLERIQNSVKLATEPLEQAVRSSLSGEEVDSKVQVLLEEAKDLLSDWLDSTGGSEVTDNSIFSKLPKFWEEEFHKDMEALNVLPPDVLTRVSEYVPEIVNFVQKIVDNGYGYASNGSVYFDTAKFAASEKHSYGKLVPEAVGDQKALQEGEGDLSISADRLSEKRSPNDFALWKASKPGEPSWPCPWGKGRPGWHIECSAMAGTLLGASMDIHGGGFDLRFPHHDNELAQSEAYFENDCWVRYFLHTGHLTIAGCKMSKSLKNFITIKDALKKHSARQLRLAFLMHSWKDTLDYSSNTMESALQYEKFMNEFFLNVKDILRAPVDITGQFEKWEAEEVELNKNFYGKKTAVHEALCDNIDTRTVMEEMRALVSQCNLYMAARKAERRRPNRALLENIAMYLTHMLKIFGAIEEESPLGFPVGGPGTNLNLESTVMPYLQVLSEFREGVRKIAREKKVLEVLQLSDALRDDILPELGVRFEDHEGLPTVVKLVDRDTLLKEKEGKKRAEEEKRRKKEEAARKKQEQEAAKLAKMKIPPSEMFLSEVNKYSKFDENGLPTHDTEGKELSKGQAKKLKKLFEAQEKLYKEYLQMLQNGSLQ

human CARS2 = biological target: T4, human CARS2 (Homo sapiens, UniProt Q9HA77); experiment: CysSSH and CysSSSH biosynthesis by recombinant human CARS2
T4 sequence (Q9HA77 1-564): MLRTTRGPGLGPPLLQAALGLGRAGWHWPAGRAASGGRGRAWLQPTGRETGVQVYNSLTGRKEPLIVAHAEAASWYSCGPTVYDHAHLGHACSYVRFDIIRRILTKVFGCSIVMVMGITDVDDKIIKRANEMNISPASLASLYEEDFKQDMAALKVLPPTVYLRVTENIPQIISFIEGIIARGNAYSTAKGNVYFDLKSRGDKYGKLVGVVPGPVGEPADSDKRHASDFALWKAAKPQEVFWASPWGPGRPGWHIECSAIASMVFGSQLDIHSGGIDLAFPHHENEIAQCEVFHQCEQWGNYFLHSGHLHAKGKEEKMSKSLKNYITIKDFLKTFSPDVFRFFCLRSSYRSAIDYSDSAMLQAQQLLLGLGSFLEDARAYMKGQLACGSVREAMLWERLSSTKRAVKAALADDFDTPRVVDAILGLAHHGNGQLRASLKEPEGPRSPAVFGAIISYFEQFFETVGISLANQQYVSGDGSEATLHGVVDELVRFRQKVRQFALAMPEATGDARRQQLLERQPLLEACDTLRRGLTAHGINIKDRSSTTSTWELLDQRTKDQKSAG

[1] = system: mitochondrial ETC in HEK293T cells; experiment: Effect of suppression of ETC on metabolic profiles of CysSSH; format: cell-based, human; details: HPE-IAM labeling LC-MS/MS
Description: Effect of suppression of ETC on metabolic profiles of CysSSH. The mito-chondrial ETC in HEK293T cells was inhibited either by a complex III inhibitor, antimycin A, or by elimination of mitochondrial DNA (mtDNA) induced by ethidium bromide. For the direct but partial ETC (complex III) inhibition, WT and CARS2 KO cells were treated with various concentrations of antimycin A for 1 h, followed by methanol extraction for measurement of CysSSH and its related sulfide derivatives by HPE-IAM labeling LC-ESI-MS/MS analysis as described earlier. […] The quantity of each sulfide produced from CARS2 in the cells was determined by subtracting the amount of each sulfide in CARS2 KO HEK293T cells from that in the WT cells, after quantification of each metabolite via HPE-IAM labeling LC-MS/MS analysis. Changes in the amounts of CysSSH (ACysSSH) and HS— (AHS-) induced by complex III inhibition by antimycin A or by mtDNA elimination in WT and CARS2 KO HEK293T cells were then calculated.

CSE = experiment: Kinetic parameters of recombinant CSE with L-cystine as substrate; format: biochemical, rat and human

T1 sequence (P21888 whole entry): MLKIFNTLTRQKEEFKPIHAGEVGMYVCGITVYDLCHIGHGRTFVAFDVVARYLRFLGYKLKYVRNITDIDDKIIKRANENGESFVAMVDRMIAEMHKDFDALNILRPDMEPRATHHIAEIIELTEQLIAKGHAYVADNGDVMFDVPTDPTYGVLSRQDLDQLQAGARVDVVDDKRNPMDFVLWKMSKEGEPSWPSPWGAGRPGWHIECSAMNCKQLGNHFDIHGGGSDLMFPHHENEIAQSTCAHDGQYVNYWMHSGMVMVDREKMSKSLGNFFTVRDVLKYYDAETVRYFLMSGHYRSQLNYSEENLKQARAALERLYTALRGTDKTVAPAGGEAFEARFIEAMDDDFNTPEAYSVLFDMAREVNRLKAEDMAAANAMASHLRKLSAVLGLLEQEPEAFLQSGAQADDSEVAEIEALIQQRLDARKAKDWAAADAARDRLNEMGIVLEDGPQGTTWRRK
T2 sequence (P11766 whole entry, species assumed): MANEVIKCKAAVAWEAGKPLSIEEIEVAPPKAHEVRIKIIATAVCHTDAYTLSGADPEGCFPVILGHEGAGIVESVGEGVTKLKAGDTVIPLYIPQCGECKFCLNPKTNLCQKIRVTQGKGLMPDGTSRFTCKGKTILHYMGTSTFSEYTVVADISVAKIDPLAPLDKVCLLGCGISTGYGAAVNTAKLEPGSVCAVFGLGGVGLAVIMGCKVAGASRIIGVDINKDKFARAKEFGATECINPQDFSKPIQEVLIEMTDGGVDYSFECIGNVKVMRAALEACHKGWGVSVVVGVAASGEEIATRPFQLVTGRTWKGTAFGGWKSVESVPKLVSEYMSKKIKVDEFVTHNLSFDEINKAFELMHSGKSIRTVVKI

Molecule: N[C@@H](CS)C(=O)O [L-cysteine]
Persulfide generation by EcCARS with cysteine enantiomer as substrate (EcCARS): demonstrated activity

Molecule: CCN1C(=O)C=CC1=O [N-ethylmaleimide]
HPE-IAM labeling of CysSH and CysSSH/SSSH of ADH5 (ADH5): completely abrogated

Molecule: Nc1ncnc2c1ncn2[C@@H]1O[C@H](COP(=O)(O)OP(=O)(O)OP(=O)(O)O)[C@@H](O)[C@H]1O [ATP]
Dependence of persulfide synthase activity of EcCARS on added factor (EcCARS): but not on ATP

Molecule: Cc1ncc(COP(=O)(O)O)c(C=O)c1O [pyridoxal phosphate]
Dependence of persulfide synthase activity of EcCARS on added factor (EcCARS): depended partly
Dependence of CysS-(S)n-H producing activity on PLP (mouse CARS1; mouse CARS1): depended on the presence of PLP
Dependence of CysS-(S)n-H producing activity on PLP (human CARS2; human CARS2): depended on the presence of PLP
Cysteine persulfide production in reaction mixture of cysteine and PLP alone (human CARS2; no enzyme, no >100 μM PLP): No appreciable cysteine persulfide production was detected

Molecule: N[C@H](CS)C(=O)O [D-cysteine]
Persulfide generation by EcCARS with cysteine enantiomer as substrate (EcCARS): but not D-cysteine demonstrated activity

Molecule: antimycin A
Change in CysSSH [1]: significant increase
Change in HS- production [1]: reduction

CysS-(S)n-H producing activity (mouse CARS1; recombinant mouse CARS1): strong
B1: mouse CARS1: recombinant cytosolic cysteinyl-tRNA synthetase (protein, UniProt Q9ER72 2-831, looked up)
Cysteine--tRNA ligase, …: AGSSAEQAADYRSILSISDEAARVQALDQHLSTRSYIQGYSLSQADVDVFRQLSAPPADSRLFHVARWFRHIEALLGGPQGRDEPCRLQASKGRRVQPQWSPPAGTEPCRLRLYNSLTRNKDVFIPQDGKKVTWYCCGPTVYDASHMGHARSYISFDILRRVLRDYFQYDVFYCMNITDIDDKIIRRARQNYLFEQYREQKPPATQLLKDVRDAMKPFSVKLSETTDPDKRQMLERIQNSVKLATEPLEQAVRSSLSGEEVDSKVQVLLEEAKDLLSDWLDSTGGSEVTDNSIFSKLPKFWEEEFHKDMEALNVLPPDVLTRVSEYVPEIVNFVQKIVDNGYGYASNGSVYFDTAKFAASEKHSYGKLVPEAVGDQKALQEGEGDLSISADRLSEKRSPNDFALWKASKPGEPSWPCPWGKGRPGWHIECSAMAGTLLGASMDIHGGGFDLRFPHHDNELAQSEAYFENDCWVRYFLHTGHLTIAGCKMSKSLKNFITIKDALKKHSARQLRLAFLMHSWKDTLDYSSNTMESALQYEKFMNEFFLNVKDILRAPVDITGQFEKWEAEEVELNKNFYGKKTAVHEALCDNIDTRTVMEEMRALVSQCNLYMAARKAERRRPNRALLENIAMYLTHMLKIFGAIEEESPLGFPVGGPGTNLNLESTVMPYLQVLSEFREGVRKIAREKKVLEVLQLSDALRDDILPELGVRFEDHEGLPTVVKLVDRDTLLKEKEGKKRAEEEKRRKKEEAARKKQEQEAAKLAKMKIPPSEMFLSEVNKYSKFDENGLPTHDTEGKELSKGQAKKLKKLFEAQEKLYKEYLQMLQNGSLQ

B2: CSE: cystathionine γ-lyase (cystathionase), recombinant rat and human (protein, UniProt P32929 1-405, looked up)
Cystathionine gamma-lyase: MQEKDASSQGFLPHFQHFATQAIHVGQDPEQWTSRAVVPPISLSTTFKQGAPGQHSGFEYSRSGNPTRNCLEKAVAALDGAKYCLAFASGLAATVTITHLLKAGDQIICMDDVYGGTNRYFRQVASEFGLKISFVDCSKIKLLEAAITPETKLVWIETPTNPTQKVIDIEGCAHIVHKHGDIILVVDNTFMSPYFQRPLALGADISMYSATKYMNGHSDVVMGLVSVNCESLHNRLRFLQNSLGAVPSPIDCYLCNRGLKTLHVRMEKHFKNGMAVAQFLESNPWVEKVIYPGLPSHPQHELVKRQCTGCTGMVTFYIKGTLQHAEIFLKNLKLFTLAESLGGFESLAELPAIMTHASVLKNDRDVLGISDTLIRLSVGLEDEEDLLEDLDQALKAAHPPSGSHS
modifications: also rat
notes: cystathionine γ-lyase (cystathionase), recombinant rat and human
Km (CSE): > 200 µM
